Measurements reported in PubChem BioAssay AID330 (DTP/NCI, 2004).
Toxic doses and inconclusive results are not listed.

System: P388 leukemia ip, CD2F1 mice, survival T/C
Assay: NCI In Vivo Anticancer Drug Screen. Data for tumor model P388 Leukemia (intraperitoneal) in CD2F1 (CDF1) mice
Settings: endpoint: median survival time, higher = longer survival
Procedure, shortened: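 Mice carrying the transplanted tumor received test compound or vehicle. Survival was recorded in each group, and the value is the treated-group measurement divided by that of the vehicle-treated control group.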

[1] = dose: 50.0 mg/kg/injection, schedule: Q01DX005 (ip), vehicle: saline with Tween-80
[2] = dose: 100.0 mg/kg/injection, schedule: Q01DX005 (ip), vehicle: saline with Tween-80
[3] = dose: 200.0 mg/kg/injection, schedule: Q01DX005 (ip), vehicle: saline with Tween-80
[4] = dose: 60.0 mg/kg/injection, schedule: Q01DX005 (ip), vehicle: Klucel (hydroxypropylcellulose) (HPC)
[5] = dose: 120.0 mg/kg/injection, schedule: Q01DX005 (ip), vehicle: Klucel (hydroxypropylcellulose) (HPC)

Oc1ccccc1N=Cc1ccc2c(c1)OCO2
T/C (dose: 25.0 mg/kg/injection, schedule: Q01DX005 (ip), vehicle: saline with Tween-80): 103 % of control | T/C [1]: 110 % of control | T/C [2]: 104 % of control | T/C [3]: 110 % of control

COC(=O)C1(C(=O)OC)CCCC2=NOC3CCC1C23 (stereo not given)
T/C (dose: 6.25 mg/kg/injection, schedule: Q01DX002 (ip), vehicle: Klucel (hydroxypropylcellulose) (HPC)): 107 % of control | T/C (dose: 12.5 mg/kg/injection, schedule: Q01DX002 (ip), vehicle: Klucel (hydroxypropylcellulose) (HPC)): 100 % of control | T/C (dose: 25.0 mg/kg/injection, schedule: Q01DX002 (ip), vehicle: Klucel (hydroxypropylcellulose) (HPC)): 93 % of control

CCOC(=O)C(CC)CO (stereo not given)
T/C (dose: 50.0 mg/kg/injection, schedule: Q01DX009 (ip), vehicle: saline): 101 % of control | T/C (dose: 100.0 mg/kg/injection, schedule: Q01DX009 (ip), vehicle: saline): 100 % of control | T/C (dose: 200.0 mg/kg/injection, schedule: Q01DX009 (ip), vehicle: saline): 101 % of control

O=C(O)c1c(Cl)n(Cc2cc(Cl)ccc2Cl)c2ccccc12
T/C [4]: 95 % of control | T/C [5]: 88 % of control

CS/C(=C/c1ccc2ccccc2[n+]1C)N1CCCCC1
T/C (dose: 0.78 mg/kg/injection, schedule: Q01DX005 (ip), vehicle: saline with Tween-80): 109 % of control | T/C (dose: 1.56 mg/kg/injection, schedule: Q01DX005 (ip), vehicle: saline with Tween-80): 116 % of control

O=C1C2OC2C(O)(CCN(Cc2ccc3c(c2)OCO3)C(=O)C(F)(F)F)C2OC12 (stereo not given)
T/C (dose: 6.25 mg/kg/injection, schedule: Q01DX001 (ip), vehicle: saline): 104 % of control | T/C (dose: 12.5 mg/kg/injection, schedule: Q01DX001 (ip), vehicle: saline): 105 % of control | T/C (dose: 25.0 mg/kg/injection, schedule: Q01DX001 (ip), vehicle: saline): 106 % of control

CCCCCCCNc1ncnc2[nH]ncc12
T/C [1]: 112 % of control | T/C [2]: 107 % of control | T/C [3]: 107 % of control

CN1CCCCC1Cc1ccccc1 (stereo not given)
T/C (dose: 6.25 mg/kg/injection, schedule: Q01DX005 (ip), vehicle: saline): 103 % of control | T/C (dose: 12.5 mg/kg/injection, schedule: Q01DX005 (ip), vehicle: saline): 102 % of control | T/C (dose: 25.0 mg/kg/injection, schedule: Q01DX005 (ip), vehicle: saline): 100 % of control

O=C(Nc1cccc(C(=O)Nc2ccc(S(=O)(=O)O)c3cc(S(=O)(=O)O)cc(S(=O)(=O)O)c23)c1)Nc1cccc(C(=O)Nc2cccc3c(S(=O)(=O)O)c(S(=O)(=O)O)cc(S(=O)(=O)O)c23)c1
T/C (dose: 60.0 mg/kg/injection, schedule: Q01DX005 (ip), vehicle: saline): 88 % of control | T/C (dose: 120.0 mg/kg/injection, schedule: Q01DX005 (ip), vehicle: saline): 99 % of control | T/C (dose: 240.0 mg/kg/injection, schedule: Q01DX005 (ip), vehicle: saline): 93 % of control

O=C(Cc1nc2ccccc2[nH]1)NNC(=S)Nc1ccc(Cl)cc1
T/C [4]: 88 % of control | T/C [5]: 86 % of control

Cc1cc(=O)[nH]c(Nc2ccccc2)n1
T/C (dose: 100.0 mg/kg/injection, schedule: Q04DX003 (ip), vehicle: saline with Tween-80): 100 % of control | T/C (dose: 200.0 mg/kg/injection, schedule: Q04DX003 (ip), vehicle: saline with Tween-80): 90 % of control | T/C (dose: 400.0 mg/kg/injection, schedule: Q04DX003 (ip), vehicle: saline with Tween-80): 100 % of control

CCCCS(=O)CC(CO)NC(=O)/C=C/c1c(C)[nH]c(=O)[nH]c1=O (stereo not given)
T/C (dose: 0.08 mg/kg/injection, schedule: Q01DX009 (ip), vehicle: Klucel (hydroxypropylcellulose) (HPC)): 89 % of control | T/C (dose: 0.15 mg/kg/injection, schedule: Q01DX009 (ip), vehicle: Klucel (hydroxypropylcellulose) (HPC)): 86 % of control | T/C (dose: 0.3 mg/kg/injection, schedule: Q01DX009 (ip), vehicle: Klucel (hydroxypropylcellulose) (HPC)): 103 % of control | T/C (dose: 0.6 mg/kg/injection, schedule: Q01DX009 (ip), vehicle: Klucel (hydroxypropylcellulose) (HPC)): 112 % of control | T/C (dose: 0.6 mg/kg/injection, schedule: Q01DX009 (ip), vehicle: water): 122 % of control | T/C (dose: 4.8 mg/kg/injection, schedule: Q01DX009 (ip), vehicle: water): 153 % of control | T/C (dose: 5.0 mg/kg/injection, schedule: Q01DX009 (ip), vehicle: water): 161 % of control

C[CH2][Sn]([CH2]C)([CH2]C)[O]C(=O)CO
T/C (dose: 1.56 mg/kg/injection, schedule: Q01DX009 (ip), vehicle: saline with Tween-80): 115 % of control | T/C (dose: 3.12 mg/kg/injection, schedule: Q01DX009 (ip), vehicle: saline with Tween-80): 122 % of control
